Data reported in US20040138193A1, “Oestrogen fatty acid monoester as a hypolipidaemic and antidiabetic agent” (priority 2001, published 2004).

Key:
[1] = test system: Wistar female rats; experiment: Dose dependence of plasma parameters after 10 days of daily oral gavage in normal Wistar female rats; assay type: in vivo, rat; settings: female Wistar rats; daily gavage 20 μmol/kg · d, 10 days
Protocol: Eight groups of 6 normal Wistar female rats each were used. The animals were kept under standard housing conditions and had free access to pellet food and tap water. All the rats received a daily oral gavage of 0.2 ml of sunflower oil through a stomach tube. This oil contained different amounts of oleoyl-estrone so that the rats received daily doses of 0, 0.2, 0.5, 1, 2, 5, 10 or 20 micromols per kg of body weight. After 10 days of daily gavages, the rats were killed and their blood extracted and used to obtain plasma through centrifugation. Plasma samples were used for the analysis of glucose, total cholesterol and triacylglycerols by means of a dry-strip procedure (Spotchem, Menarini, Firenze, Italy), the levels of 3-hydroxybutyrate were measured with the kit 907979 from Boehringer Mannheim (Mannheim, Germany), and non-esterified fatty acids with the kit 1383175 from the same company. Insulin levels were measured through radioimmunoassay (rat insulin kit, Amersham, Amersham, United Kingdom).

[2] = test system: lipoprotein lipase; experiment: Lipoprotein lipase activity in plasma and tissues of treated lean and obese rats; assay type: in vivo, rat; settings: for Lipoprotein-lipase activity, WAT mesenteric, whole tissue of the rat / Lipoprotein-lipase activity, WAT periovaric, whole tissue of the rat / Lipoprotein-lipase activity, Muscle, whole tissue of the rat: 10 μmol/kg · d; for Lipoprotein-lipase activity, WAT mesenteric, whole tissue of the rat: calculated assuming all WAT had the specific activity of mesenteric WAT; for Lipoprotein-lipase activity, WAT periovaric, whole tissue of the rat: calculated assuming all WAT had the specific activity of periovaric WAT; for Lipoprotein-lipase activity, Liver, per gram of tissue protein / Lipoprotein-lipase activity, Liver, per unit of tissue weight / Lipoprotein-lipase activity, Liver, whole organ of the rat / Lipoprotein-lipase activity, Muscle, per gram of tissue protein / Lipoprotein-lipase activity, Muscle, per unit of tissue weight / Lipoprotein-lipase activity, Plasma / Lipoprotein-lipase activity, Plasma, per gram of protein / Lipoprotein-lipase activity, WAT mesenteric, per gram of tissue protein / Lipoprotein-lipase activity, WAT mesenteric, per unit of tissue weight / Lipoprotein-lipase activity, WAT periovaric, per gram of tissue protein / Lipoprotein-lipase activity, WAT periovaric, per unit of tissue weight / Lipoprotein-lipase activity, Plasma, whole compartment of the rat: daily gavage 10 μmol/kg · d; for Lipoprotein-lipase activity, Plasma, whole compartment of the rat: plasma mass taken as 2.75% of body weight; for overall lipoprotein lipase activity in the rat (muscle + liver + plasma + WAT): rough estimate
Protocol: Liver, muscle and WAT (white adipose tissue) samples were homogenized in 10 mM hepes buffer pH 7.5, containing 250 mM sucrose, 1 MM-EDTA and 1 mM dithiothreitol in order to measure lipoprotein lipase activity in tissues. Homogenates were clarified by centrifugation (10 min at 10,000×g) at 4° C. The assay mixture (pH 7.5) contained 0.6 mM tri-[9,10(n)-^3H]-oleoyl-glycerol, 50 mM MgCl2, 0.5 g/L albumin (fatty acid-free), 3 ml/L preheated (60 min at 50° C.)rat serum, 25 mM PIPES buffer and 0.02 ml of sample in a final volume of 0.2 ml; the incubation was carried out for 30 min at 25° C.; after the reaction was stopped, the [^3H]-oleate evolved was quantified. All measurements of lipoprotein lipase activity in plasma and liver homogenates were carried out in the presence of anti-rat hepatic lipase antiserum. The homogenate and plasma protein content were determined with the Bradford method.
The enzyme activity was expressed in nkat/L of plasma of nkat/kg of tissue; the values were also referred to plasma or tissue protein content. The overall share of potential activity of the enzymes studied was also estimated by determining the contribution of each organ/tissue: plasma, liver and WAT (white adipose tissue) enzyme activity in relation to body mass. The results are expressed as the total activity found per kg of body weight in a given tissue or compartment. The liver was directly weighed (3.38±0.10% of BW (body weight) for lean and 3.17±0.13% of BW for the obese). The mass of plasma was taken as a 2.75% of body weight (blood being 5% of body weight, and packed cell volume 45% of that value). Overall WAT lipoprotein lipase activity in both groups of animals was calculated using the mean values for either the periovaric or mesenteric locations of both sets of data and the proportions of WAT published for lean [15% of BW] control and oleoyl-estrone-treated [7% of BW] and obese Zucker fa/fa rat [35% BW] control and oleoyl-estrone-treated [28% BW]. Muscle mass was calculated also as a proportion of body weight: 43% for lean and 33 for obese rats.
Statistical analysis of the differences between groups was established using ANOVA programs and the Student's t test.

effect on lipoprotein lipase activity in plasma ([2]; lean rats, vs controls): generalized rise | effect on lipoprotein lipase activity of the tissues studied ([2]; lean rats, vs controls): did not affect significantly | change of lipoprotein lipase activity in skeletal muscle ([2]; obese rats, vs control): increased fourfold | effect on lipoprotein lipase activity in WAT ([2]; obese rats, vs controls): decreases | effect on lipoprotein lipase activity in liver ([2]; obese rats, vs controls): no changes | effect on lipoprotein lipase activity in plasma ([2]; obese rats, vs controls): increases
Structure (SMILES): CCCCCCCC/C=C\CCCCCCCC(=O)Oc1ccc2c(c1)CC[C@@H]1[C@@H]2CC[C@]2(C)C(=O)CC[C@@H]12 [oleoyl-estrone]
plasma total cholesterol [1]: 0.53 ± 0.05 mM | plasma triacylglycerols [1]: 0.92 ± 0.11 mM | overall loss of lipoprotein lipase because of treatment ([2]; lean animals, vs control): 37% | Lipoprotein-lipase activity, WAT mesenteric, whole tissue of the rat ([2]; lean rats): 133 ± 64 nkat/rat | Lipoprotein-lipase activity, WAT periovaric, whole tissue of the rat ([2]; lean rats): 33.2 ± 5.0 nkat/rat | Lipoprotein-lipase activity, Muscle, whole tissue of the rat ([2]; lean rats, muscle mass calculated as 43% of body weight): 8.79 ± 0.72 nkat/rat | Lipoprotein-lipase activity, Liver, per gram of tissue protein ([2]; lean rats): 1.74 ± 0.32 nkat/g P | Lipoprotein-lipase activity, Liver, per unit of tissue weight ([2]; lean rats): 204 ± 48 pkat/g | Lipoprotein-lipase activity, Liver, whole organ of the rat ([2]; lean rats): 1.12 ± 0.34 nkat/rat | Lipoprotein-lipase activity, Muscle, per gram of tissue protein ([2]; lean rats): 3.09 ± 0.57 nkat/g P | Lipoprotein-lipase activity, Muscle, per unit of tissue weight ([2]; lean rats): 110.3 ± 41.3 pkat/g | Lipoprotein-lipase activity, Plasma ([2]; lean rats): 11.76 ± 1.75 pkat/mL | Lipoprotein-lipase activity, Plasma, per gram of protein ([2]; lean rats): 147.8 ± 18.9 pkat/g P | Lipoprotein-lipase activity, WAT mesenteric, per gram of tissue protein ([2]; lean rats): 779 ± 384 nkat/g P | Lipoprotein-lipase activity, WAT mesenteric, per unit of tissue weight ([2]; lean rats): 10.25 ± 4.94 nkat/g | Lipoprotein-lipase activity, WAT periovaric, per gram of tissue protein ([2]; lean rats): 317 ± 111 nkat/g P | Lipoprotein-lipase activity, WAT periovaric, per unit of tissue weight ([2]; lean rats): 2.56 ± 0.39 nkat/g | Lipoprotein-lipase activity, Plasma, whole compartment of the rat ([2]; lean rats): 59.2 ± 11.6 pkat/rat | overall lipoprotein lipase activity in the rat (muscle + liver + plasma + WAT) ([2]; lean treated rats): 152 nkat | decrease in mesenteric WAT lipoprotein lipase ([2]; lean, vs control): 64% | decrease in periovaric WAT lipoprotein lipase ([2]; lean, vs control): 45% | overall loss of lipoprotein lipase because of treatment ([2]; obese animals, vs control): 51% | Lipoprotein-lipase activity, WAT mesenteric, whole tissue of the rat ([2]; obese rats): 129 ± 27 nkat/rat | Lipoprotein-lipase activity, WAT periovaric, whole tissue of the rat ([2]; obese rats): 135 ± 19 nkat/rat | Lipoprotein-lipase activity, Muscle, whole tissue of the rat ([2]; obese rats, muscle mass calculated as 33% of body weight): 152 ± 18 nkat/rat | Lipoprotein-lipase activity, Liver, per gram of tissue protein ([2]; obese rats): 1.41 ± 0.21 nkat/g P | Lipoprotein-lipase activity, Liver, per unit of tissue weight ([2]; obese rats): 182 ± 27 pkat/g | Lipoprotein-lipase activity, Liver, whole organ of the rat ([2]; obese rats): 2.48 ± 0.26 nkat/rat | Lipoprotein-lipase activity, Muscle, per gram of tissue protein ([2]; obese rats): 40.8 ± 4.4 nkat/g P | Lipoprotein-lipase activity, Muscle, per unit of tissue weight ([2]; obese rats): 1383 ± 168 pkat/g | Lipoprotein-lipase activity, Plasma ([2]; obese rats): 7.19 ± 1.76 pkat/mL | Lipoprotein-lipase activity, Plasma, per gram of protein ([2]; obese rats): 107.1 ± 23.6 pkat/g P | Lipoprotein-lipase activity, WAT mesenteric, per gram of tissue protein ([2]; obese rats): 1767 ± 420 nkat/g P | Lipoprotein-lipase activity, WAT mesenteric, per unit of tissue weight ([2]; obese rats): 1.40 ± 0.29 nkat/g | Lipoprotein-lipase activity, WAT periovaric, per gram of tissue protein ([2]; obese rats): 245 ± 51 nkat/g P | Lipoprotein-lipase activity, WAT periovaric, per unit of tissue weight ([2]; obese rats): 1.46 ± 0.21 nkat/g | Lipoprotein-lipase activity, Plasma, whole compartment of the rat ([2]; obese rats): 51.4 ± 9.3 pkat/rat | overall lipoprotein lipase activity in the rat (muscle + liver + plasma + WAT) ([2]; obese treated rats): 338 nkat | decrease in mesenteric WAT lipoprotein lipase ([2]; obese, vs control): 87% | decrease in periovaric WAT lipoprotein lipase ([2]; obese, vs control): 56%
